Assay results reported in patent US20080058284A1, “Pharmaceutical compositions of semicarbazones and/or thiosemicarbazones and/or their derivatives and products of these compositions and their uses as anticonvulsant, anti-nociceptive and anti-inflammatory agents, and in the angiogenic therapy” (UNIVERSIDALE FEDERAL DE MINAS GERAIS, priority 2002, published 2008).

Assays:
[1] = test system: angiogenesis induced by sponge implant in Swiss mice; test: Angiogenesis induced by sponge implant, hemoglobin content (vascular index); assay type: in vivo; settings: for reduction in the hemoglobin content of implants: vs vehicle-treated group
Description: The experiments were performed in male, Swiss mice (20-30 g; 12 weeks old) from the Animal House of the Institute of Biological Sciences, Federal University of Minas Gerais. Polyether-polyurethane sponge discs 5 mm thickness and 10 mm diameter with central cannula, used as a framework to induce fibrovascular tissue growth, were introduced through a skin incision in the back of mice anesthetized with 2,2,2-tribromoethanol ([…]) [Machado, R. D. P., Santos, R. A. S., Andrade, S. P., Life Sciences 66, 67, 2000]. The animals were housed individually and provided with normal food and water. Housing and anesthesia concurred with the guidelines established by our local Institutional Animal Welfare Committee.
Four more doses were given in the subsequent days. The animals were killed by cervical dislocation 9 days after implantation. The implants were removed and processed for hemoglobin determination (vascular index) using a modified Drabkin's method [Plunkett, M. L., Haley, J. A., Lab. Invest. […] One group of animals received injection of vehicle.

[2] = test system: nociceptive response of mice on hot-plate (57° C.); test: Hot-plate model; assay type: in vivo; settings: 10, 25 or 50 mg/kg i.p., -1 h
Description: In the hot-plate model, the mice are placed over a hot-plate (57° C.). The latency to jump or lick the paws is determined. In this model, direct and immediate activation of peripheral afferent fibbers occurs. Thus, drugs that act mainly in the central nervous system inhibit the nociceptive response in this model.
In the hot-plate model, the mice are placed over a hot-plate (57° C.). The latency to jump or lick the paws is determined. In this model, direct and immediate activation of peripheral afferent fibers occurs. Thus, drugs that act mainly in the central nervous system inhibit the nociceptive response in this model.

[3] = test system: carrageenan-induced edema in rats; test: Carrageenan-induced edema; assay type: in vivo, rat; settings: 10, 25 or 50 mg/kg i.p., -1 h
Description: To evaluate if a coupound presents antiedematogenic activity, the model of carrageenan-induced edema in rats was used. In this model, before the administration of any drug, the right hindpaw volume is determined with a plethysmomether. After the division of the groups, carrageenan (1%, 50 μL) is injected into the plantar surface. At different times after the injection of carrageenan, the paw volume is determined again. This inflammatory stimulus induces a marked edema that is inhibited by different anti-inflammatory drugs (steroid and non-steroid), inhibitors of nitric oxide synthesis and antagonists of histamine, 5-hydroxytryptamine and bradykinin, inhibitors of nitric oxide syntheses, etc.
To evaluate if BS presents antiedematogenic activity, the model of carrageenan-induced edema in rats was used. In this model, before the administration of any drug, the right hindpaw volume is determined with a plethysmomether. After the division of the groups, carrageenan (1%, 50 μl) is injected into the plantar surface. At different times after the injection of carrageenan, the paw volume is determined again.

[4] = test system: Wistar Audiogenic Rats (WAR) with audiogenic seizures; test: Audiogenic seizures (AS) in Wistar Audiogenic Rats, blockade of tonic component; assay type: in vivo, rat
Description: Comparison of the Anticonvulsant Effect of Free Benzaldehyde Semicarbazone (BS) and the HP-β-CD/BS Pharmaceutical Composition in Wistar Audiogenic Rats (WAR) with Audiogenic Seizures (AS). Typically WARs Present Running Fits, Jumping, Atonic Falling Followed by Tonic-Clonic Seizures and Clonic Spasms when Submitted to High Intensity Sound Stimulus (120 dB SPL)
Female Wistar Audiogenic Rats (WARs) from our own inbred colony, maintained at the animal facilities of the Physiology Department of Federal University of Minas Gerais, Brazil, weighing 250-300 g, were used. They were kept at 24° C., in groups of 5 per cage receiving chow pellets and water ad libitum. The light/dark cycle was 12 h:12 h, with lights on at 7:00 am and lights off at 7:00 pm. Efforts were made in order to avoid any unnecessary distress to the animals, in accordance to the Guidelines for Animal Experimentation of Federal University of Minas Gerais, Brazil.
Audiogenic seizures (AS) were induced by a sound stimulus (120 dB) delivered into an acoustic chamber through a loud speaker, until tonic seizures appeared, or during a maximum of 1 minute. Behavior was evaluated by a severity index (SI) ranging from SI=0.0 to SI=1.0 (maximum).
Typically WARs present running fits, jumping and atonic falling followed by tonic-clonic seizures and clonic spasms (SI≧0.85). Animals were stimulated three times, once every three days before the beginning of experiments, in order to screen them for seizure severity (control recording). Seven days after the third stimulation they were used in the experiments. To evaluate the effect of decreasing on AS severity, it was taken as criteria the blockade of the tonic component of seizure, which means to obtain SI<0.61.

[5] = test system: nociceptive response induced by formaldehyde in mice; test: Licking behavior induced by formaldehyde; assay type: in vivo
Description: In the first model, licking behaviour induced by formaldehyde (0.92%, 20 μL), the inflammatory stimulus is injected into the dorsum of the right hindpaw of mice. Immediately after the injection, the animals present a nociceptive behaviour characterized by licking and biting the injected paw. The licking time is determined between 0 and 5 min and 15 and 30 min after formaldehyde injection. The first phase results from direct activations of primary afferent fibers and is inhibited mainly by centrally acting drugs such as the opioid analgesics. The second phase is associated with the development of an inflammatory response and facilitation of synaptic transmission in the spinal cord.
In the model of licking behavior induced by formaldehyde, the inflammatory stimulus (0.92%, 20 μL) is injected into the dorsum of the right hindpaw of mice. Immediately after the injection, the animals present a nociceptive behaviour characterized by licking and biting the injected paw. The licking time is determined between 0 and 5 min (first phase) and 15 and 30 min (second phase) after formaldehyde injection. The first phase of the nociceptive response induced by formaldehyde in mice was inhibited by the highest dose of BS (50 mg/kg, i.p.).

[6] = test system: motor activity of mice; test: Motor activity in rota-rod apparatus; assay type: in vivo; settings: 10, 25 or 50 mg/kg i.p.; 30 min after injection; 14 rpm, cut-off 1 min
Description: The effect of BS on the motor activity of mice was evaluated in order to investigate if inhibition of the nociceptive behavior in animals treated with BS would not be the result of a central depressor effect. The motor activity was evaluated in a rota-rod apparatus. During the experiment, the mice were placed on the rota-rod (14 rpm) and the time they spent in the apparatus was determined. The cut-off time was 1 min. After the basal lecture, the animals were treated with BS (10, 25 or 50 mg/kg, intraperitoneal; i.p.). The vehicle used was 25% dimethylsulphoxide (DMSO)+10% tween 80 in saline. Thirty minutes after the injection, the time spent in the rota-rod was determined again.

[7] = test system: thermal allodynia induced by carrageenan in Wistar male rats; test: Thermal allodynia induced by carrageenan; assay type: in vivo, rat; settings: only at 50 mg/kg i.p., -1 h (10, 25, 50 mg/kg tested)
Description: In the model of thermal allodynia, the right hindpaw withdrawal latency to a thermal stimulus (Hargreaves apparatus—Ugo Basile, Italy) is determined in rats before the administration of any drug. The intensity of the thermal stimulus is adjusted to induce a basal latency about 12 s. After the basal lecture, carrageenan (1%, 50 μL) is injected into the right hindpaw. This inflammatory stimulus reduces the latency for paw withdrawal induced by the thermal stimulus, which is characterized as thermal allodynia.
In the model of thermal allodynia, the right hindpaw withdrawal latency to a thermal stimulus (Hargreaves apparatus—Ugo Basile, Italy) is determined in rats before the administration of any drug. The intensity of the thermal stimulus is adjusted to induce a basal latency about 12 s. After the basal lecture, carrageenan (1%, 50 μl) is injected into the right hindpaw. This inflammatory stimulus reduces the latency for paw withdrawal induced by the thermal stimulus, which is characterized as thermal allodynia.

[8] = test system: Wistar normal rats with electroshock induced seizures; test: Maximum electroshock screening (MES), blockade of hindlimb extension; assay type: in vivo, rat
Description: Comparison of the Anticonvulsant Effect of Free Benzaldehyde Semicarbazone (BS) and the BS/HP-β-CD and BS/β-CD Pharmaceutical Compositions in Wistar Normal Rats with Electroshock Induced Seizures (Maximum Electroshock Screening, MES)
Wistar rats from the main breeding stock of the Institute of Biological Sciences, Federal University of Minas Gerais, Brazil, maintained at the animal facilities of the Physiology Department, weighing 250-300 g, were used. They were kept at 24° C., in groups of 5 per cage receiving chow pellets and water ad libitum. The light/dark cycle was 12 h:12 h, with lights on at 7:00 am and lights off at 7:00 pm. Efforts were made in order to avoid any unnecessary distress to the animals, in accordance to the Guidelines for Animal Experimentation of Federal University of Minas Gerais, Brazil.
Electroshock seizures were induced by electric stimulus, produced by an ELEKTROSCHOCKGERAT apparatus (Karl Kolbe, Scientific Technical Supplies, Frankfurt, Germany) using a current of 70 mA, 60 Hz, during 1 second through a pair of ear clip electrodes.
The behavioral evaluation was carried out by analyzing the tonic component in a four points scale as follows: 0=no seizure; 1=forelimb extension without hind limb extension; 2=complete forelimb extension and partial hind limb extension; 3=complete hind limb extension, which stays parallel to the tail. To evaluate the effect of decreasing on electroshock induced seizures severity, it was taken as criteria the blockade of complete fore- and hind limb extension (score≦1).

Row | Compound | increase in hemoglobin content of implants ([1]; 0.25 mg/kg, relative to the control group) | increase of hemoglobin content (vascular index), summary statement ([1]; dose not stated) | anti-nociceptive effect (latency to jump or lick the paws) [2] | carrageenan-induced edema (paw volume) [3] | animals with tonic component of seizures blocked ([4]; 50 mg/Kg ip) [%] | animals with tonic component of seizures blocked ([4]; 75 mg/Kg ip) [%] | animals with tonic component of seizures blocked ([4]; 100 mg/Kg ip) [%] | minimum dose necessary to produce anticonvulsant activity ([4]; vo and ip) [mg/kg] | reduction in the hemoglobin content of implants ([1]; 0.05 mg/kg ip, 9 days after implantation) | reduction in the hemoglobin content of implants ([1]; the other doses (0.25, 0.5 and 2.5 mg/kg ip)) | second phase of the nociceptive response (licking time 15-30 min) ([5]; all doses: 10, 25 and 50 mg/kg i.p., -1 h) | first phase of the nociceptive response (licking time 0-5 min) ([5]; highest dose, 50 mg/kg i.p.) | time spent in the rota-rod [6] | nociceptive response in thermal allodynia (paw withdrawal latency) [7] | animals with hindlimb extension blocked ([8]; 100 mg/Kg ip and vo, males) | animals in which active, 240 minutes after administration ([8]; 240 minutes after administration (vo)) | minimum dose necessary to produce anticonvulsant activity ([8]; ip) [mg/kg] | minimum dose necessary to produce anticonvulsant activity ([8]; vo) [mg/kg]
1 | bromobenzaldehyde semicarbazone [BrBs] | about 30% | more than 30% |  |  |  |  |  |  |  |  |  |  |  |  |  |  |  | 
2 | NC(=O)NN=Cc1ccccc1 [BS, benzaldehyde semicarbazone] |  |  | did not exhibit anti-nociceptive effect | inhibited the carrageenan-induced edema | 33 | 50 | 83 | 100 | unable to reduce the hemoglobin content | more than 50% | markedly inhibited | inhibited | did not reduce the time spent in the rota-rod | statistically inhibited | about 90% | no activity | 100 | 100
